Usually GI50 stands for the concentration giving 50% growth inhibition. Lower therefore signals more potent growth inhibition.

The nature of series [1]: Growth inhibition of human 16HBE cells by MTT assay. Background: Tetrazolium assays rely on reduction of a dye to a coloured formazan, in cell work by metabolically active cells.
Series [2] is described as follows: Growth inhibition of human HLF cells after 72 hrs by MTT assay. The format is cell-based.
Series [3] is described as follows: Growth inhibition of human SGC7901 cells by MTT assay. The settings on record: SGC-7901.
The nature of series [4]: Growth inhibition of human HLF cells by MTT assay.
Series [5] in a line: Growth inhibition of human SGC7901 cells after 72 hrs by MTT assay. As to conditions: SGC-7901, 72 h. The format is functional.
A short description of series [6]: Growth inhibition of human 16HBE cells after 72 hrs by MTT assay. The class given is cell-based, 16HBE14o-.
Series [7] relates to HCT-116. Nature of the series: Growth inhibition of human HCT116 cells by MTT assay.
Series [8] has as its system HCT-116. Nature of the series: Growth inhibition of human HCT116 cells after 72 hrs by MTT assay. The settings on record: HCT-116, 72 h. The class given is functional.

For `CCCCCCCCCC[C@H](O)COCCOC[C@@H](O)CCCCCCCCCCCCC1=C[C@H](C)OC1=O`, the GI50 came to 4.8 µM in series [1]; 0.25 µM in series [3]; 2.62 µM in series [4]; 0.16 µM in series [5]; 0.09 µM in series [7]; 0.03 µM in series [8]. The concentration for 50% growth inhibition (GI50) at 72 h amounted to 9.71 µM in series [2] and 3.34 µM in series [6].
For the molecule `COC1=C(OC)C(=O)C(CCCCCCCCCCN2CCN(CCCCCCCCCCC3=C(C)C(=O)C(OC)=C(OC)C3=O)CC2)=C(C)C1=O`, the GI50 in series [1] was over 20 µM; in series [4] it was over 20 µM; in series [5], 9.77 µM; in series [7] it was 11.7 µM; in series [8], 1.95 µM. For the same molecule, the GI50 at 72 h in series [2] is over 20 µM; in series [6] it was 2.63 µM.
Take `COC1=C(C)C(=O)C(CCCCCCCCCCN2CCN(CCCCCCCCCCC3=C(C)C(=O)C(OC)=C(C)C3=O)CC2)=C(C)C1=O`: the concentration for 50% growth inhibition (GI50) was 8.4 µM in series [1]; 0.19 µM in series [3]; over 20 µM in series [4]; 0.14 µM in series [5]; 0.15 µM in series [7]; 0.18 µM in series [8]. The 50% growth inhibitory concentration (GI50) at 72 h in series [2] and in series [6] was over 20 µM throughout.
For `CC1=C(C)C(=O)C(CCCCCCCCCCN2CCN(CCCCCCCCCCC3=C(C)C(=O)C(C)=C(C)C3=O)CC2)=C(C)C1=O`, the concentration for 50% growth inhibition (GI50) in series [1] was 1.52 µM; in series [4] it was 5.87 µM; in series [5], over 20 µM; in series [7], 0.12 µM; in series [8], 0.07 µM. Besides, the GI50 at 72 h in series [2] was over 20 µM; in series [6] it was 3.85 µM.
With `CC1=C(CCCCCCCCCCN2CCN(CCCCCCCCCCC3=C(C)C(=O)c4ccccc4C3=O)CC2)C(=O)c2ccccc2C1=O`, the GI50 was 4.15 µM in series [1]; 0.39 µM in series [3]; 15.7 µM in series [4]; over 20 µM in series [5]; 0.26 µM in series [7]; 0.26 µM in series [8]. The concentration for 50% growth inhibition (GI50) at 72 h in series [2] is over 20 µM; in series [6], 3.52 µM.
As for `COC1=C(OC)C(=O)C(CCCCCCCCCCN2CCCN(CCCCCCCCCCC3=C(C)C(=O)C(OC)=C(OC)C3=O)CC2)=C(C)C1=O`, the 50% growth inhibitory concentration (GI50) was 14 µM in series [1]; 11.7 µM in series [3]; over 20 µM in series [4]; 8.69 µM in series [5]; 8.43 µM in series [7]; 1.98 µM in series [8]. Moreover, the 50% growth inhibitory concentration (GI50) at 72 h is over 20 µM in series [2] and 1.14 µM in series [6].
Consider `COC1=C(C)C(=O)C(CCCCCCCCCCN2CCCN(CCCCCCCCCCC3=C(C)C(=O)C(OC)=C(C)C3=O)CC2)=C(C)C1=O`, for which the GI50 in series [1] amounted to 1.78 µM; in series [4], 6.86 µM; in series [5], 0.04 µM; in series [7], 0.02 µM; in series [8], 0.04 µM. Moreover, the GI50 at 72 h in series [2] and in series [6] was over 20 µM each time.
As to `CC1=C(C)C(=O)C(CCCCCCCCCCN2CCCN(CCCCCCCCCCC3=C(C)C(=O)C(C)=C(C)C3=O)CC2)=C(C)C1=O`, the GI50 in series [1] is 0.91 µM; in series [3], 0.14 µM; in series [4], 2.55 µM; in series [5], 0.14 µM; in series [7] it was 0.1 µM; in series [8], 0.3 µM. For the same molecule, the GI50 at 72 h amounted to 0.36 µM in series [2] and 3.32 µM in series [6].
For the molecule `CC1=C(CCCCCCCCCCN2CCCN(CCCCCCCCCCC3=C(C)C(=O)c4ccccc4C3=O)CC2)C(=O)c2ccccc2C1=O`, the 50% growth inhibitory concentration (GI50) was determined as 1.14 µM in series [1]; 0.15 µM in series [3]; 2.68 µM in series [4]; 0.12 µM in series [5]; 0.13 µM in series [7]; 0.09 µM in series [8]. For the same molecule, the GI50 at 72 h in series [2] came to 4.95 µM; in series [6], 2.7 µM.
`COC1=C(C)C(=O)C(CCCCCCCCCCN(C)CCN(C)CCCCCCCCCCC2=C(C)C(=O)C(OC)=C(C)C2=O)=C(C)C1=O`: the GI50 is over 20 µM in series [1]; over 20 µM in series [4]; 9.76 µM in series [5]; over 20 µM in series [7]; 1.48 µM in series [8]. The GI50 at 72 h in series [2] and in series [6] was over 20 µM in each case.
With `COC1=C(OC)C(=O)C(CCCCCCCCCCN2CCCN(C(=O)c3ccc(-c4ccccc4)cc3)CC2)=C(C)C1=O`, the GI50 in series [1] is 8.01 µM; in series [3], over 20 µM; in series [4], over 20 µM; in series [5], 5 µM; in series [7], 9.73 µM; in series [8], 1.36 µM. The GI50 at 72 h in series [2] is over 20 µM; in series [6], 10.3 µM.
Take `COC1=C(C)C(=O)C(CCCCCCCCCCN2CCCN(C(=O)c3ccc(-c4ccccc4)cc3)CC2)=C(C)C1=O`: the 50% growth inhibitory concentration (GI50) was 9.76 µM in series [1]; 19.4 µM in series [3]; over 20 µM in series [4]; 1.56 µM in series [5]; 9.68 µM in series [7]; 0.89 µM in series [8]. Further, the figures for the concentration for 50% growth inhibition (GI50) at 72 h in series [2] and in series [6] were over 20 µM and 3.15 µM, respectively.
As for `CC1=C(C)C(=O)C(CCCCCCCCCCN2CCCN(C(=O)c3ccc(-c4ccccc4)cc3)CC2)=C(C)C1=O`, the GI50 in series [1] was 7.97 µM; in series [3], 19.9 µM; in series [4] it was over 20 µM; in series [5] it was 1.39 µM; in series [7], 7.47 µM; in series [8] it was 1.78 µM. The GI50 at 72 h in series [2] is over 20 µM; in series [6] it was 4 µM.
As for `CC1=C(CCCCCCCCCCN2CCCN(C(=O)c3ccc(-c4ccccc4)cc3)CC2)C(=O)c2ccccc2C1=O`, the concentration for 50% growth inhibition (GI50) in series [1] was 12.4 µM; in series [3], over 20 µM; in series [4], over 20 µM; in series [5] it was 5.57 µM; in series [7], 13.2 µM; in series [8], 0.97 µM. Also, the concentration for 50% growth inhibition (GI50) at 72 h was over 20 µM in series [2] and 2.85 µM in series [6].
For the molecule `O=C1C=C(CCCCCCCCCCN2CCCN(C(=O)c3ccc(-c4ccccc4)cc3)CC2)C(=O)c2ccccc21`, the 50% growth inhibitory concentration (GI50) in series [1], in series [3], in series [4], in series [5], in series [7] and in series [8] was over 20 µM each time. Besides, the GI50 at 72 h in series [2] and in series [6] was over 20 µM throughout.
Consider `COC1=C(C)C(=O)C(CCCCCCCCCCN2CCN(C(=O)c3ccc(-c4ccccc4)cc3)CC2)=C(C)C1=O`, for which the concentration for 50% growth inhibition (GI50) in series [1] is over 20 µM; in series [3], over 20 µM; in series [4], over 20 µM; in series [5], 5.27 µM; in series [7], 20 µM; in series [8], 2.29 µM. Also, the GI50 at 72 h was over 20 µM in series [2] and 3.19 µM in series [6].
In the case of `COc1cccc2c1C(=O)c1c(O)c3c(c(O)c1C2=O)C[C@@](O)(C(=O)CO)C[C@@H]3O[C@H]1C[C@H](N)[C@H](O)[C@H](C)O1` [DOXORUBICIN], the GI50 in series [1] is 0.18 µM; in series [3], 0.55 µM; in series [4], 0.33 µM; in series [7], 0.15 µM.

The record behind these values is ChEMBL document CHEMBL3232754, “Identification of novel bivalent mimetics of annonaceous acetogenins via a scaffold-hopping strategy” (Bioorg Med Chem Lett, 2014).
